Results: patent US12622892B2, “Methods for treating endometriosis” (THE TEXAS A&M UNIVERSITY SYSTEM, priority 2020, dated 2026)

Legend:
[1] = target: T1, NR4A1 (Homo sapiens, UniProt P22736); assay: Luciferase assay, NR4A1/NBRE-luc in ESECT-7 cells; type: cell-based; details: ESECT-7 cells transfected with NR4A1/NBRE-luc; 18 hr treatment; FIG. 2A
T1 construct: expressed in transfected cells; host or cells: ESECT-7 patient-derived endometriotic cells
Procedure: Luciferase assay: ESECT-7 and ESECT-40 cells were plated on 12-well plates in DMEM/F12 supplemented with 2.5% charcoal-stripped FBS. After overnight attachment and growth, various amounts of DNA [i.e., UASx5-Luc (500 ng), GAL4-NR4A1 (50 ng), NBREx3-Luc (800 ng), NurREx3-Luc (800 ng) and Flag-NR4A1 (80 ng)] were co-transfected into each well using Lipofectamine 2000 reagent (Invitrogen, Carlsbad, CA) according to the manufacturer's protocol. After 6 hr of transfection, cells were treated with plating medium (as above) containing either solvent (DMSO) or indicated concentrations of the compound for 18 hr. Cells were then lysed and cell extracts were used for chemiluminescence quantification of luciferase activity. Luciferase activity values were normalized against corresponding protein concentration values determined by Bradford assay. Both GAL4- and Flag-NR4A1 constructs contain full-length NR4A1 coding sequence and all the plasmids used in this study were previously described.

[2] = test system: ESECT-40 cells; assay: Cell proliferation assay (MTT), ESECT-40; type: cell-based, human; details: 24 hr; 5-10 μM DIM-C-pPhOH-3-Cl-5-OCH3, 15-25 μM DIM-C-pPhOH; FIG. 2C
Procedure: Primary human endometriotic stromal cells from endometriosis patients: Ovarian endometrioma were isolated from endometriosis patients in the proliferative phase following the IRB-approved protocol. Isolated ectopic lesions were digested with collagenase type 3 (300 μg/ml) and DNaseI (40 μg/ml) for 90 min at 37° C., and then tissues were filtered through 150, 100, and 40 μm sieves to isolate endometrial stromal cells. The collected endometrial stromal cells were cultured in DMEM/F12 with 10% FBS plus 1× antibiotic/antimycotic solution and then validated by flow cytometry with a CD90 antibody (a mesenchymal marker). Henceforth, we refer to the stromal cells as ectopic endometrium isolated ovarian endometrioma (ESECT). As the control, primary normal endometrial stromal cells isolated from the biopsy of the eutopic endometrium of normal women (NEM) in the proliferative phase. All cells were incubated at 37° C. in CO2 incubator in an atmosphere of humidified 5% CO2 and 95% air.
Cell proliferation assay: Patient-derived endometriotic cells ESECT-7 and ESECT-40 were seeded into a 96-well plate, and the cells were then treated for 24 hr with either DMSO or different concentrations of DIM-C-pPhOH and DIM-C-pPhOH-3-Cl-5-OCH3. […] Dimethyl sulfoxide (DMSO) was added and incubated at […] for 10 min, and absorbance was measured at 570 nm.

T1 sequence (P22736 whole entry, species assumed): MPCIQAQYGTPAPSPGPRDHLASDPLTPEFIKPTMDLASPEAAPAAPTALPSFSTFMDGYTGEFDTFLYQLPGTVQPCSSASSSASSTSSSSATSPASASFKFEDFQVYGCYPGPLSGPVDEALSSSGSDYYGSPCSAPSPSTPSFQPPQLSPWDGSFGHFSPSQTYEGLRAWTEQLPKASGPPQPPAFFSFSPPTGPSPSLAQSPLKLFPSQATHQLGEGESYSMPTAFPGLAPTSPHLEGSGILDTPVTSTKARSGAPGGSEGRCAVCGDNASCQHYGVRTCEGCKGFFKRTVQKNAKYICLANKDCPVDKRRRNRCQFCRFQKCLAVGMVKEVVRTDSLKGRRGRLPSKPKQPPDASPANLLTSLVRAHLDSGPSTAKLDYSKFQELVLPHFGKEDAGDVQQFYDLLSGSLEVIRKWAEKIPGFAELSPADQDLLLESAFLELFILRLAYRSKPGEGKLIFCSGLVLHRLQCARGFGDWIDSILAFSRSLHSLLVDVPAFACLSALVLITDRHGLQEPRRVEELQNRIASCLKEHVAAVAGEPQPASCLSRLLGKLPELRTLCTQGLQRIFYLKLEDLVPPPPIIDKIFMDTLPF

COc1cc(C(c2c[nH]c3ccccc23)c2c[nH]c3ccccc23)cc(Cl)c1O [DIM-C-pPhOH-3-Cl-5-OCH3]
intrinsic transcriptional activity of NR4A1 [1]: inhibited the intrinsic transcriptional activity | growth of ESECT-40 cells [2]: effectively inhibited the growth
